The values below come from patent US6815189B1, “Gene from acremonium chrysogenum encoding a protein with cephalosporin C acetylhydrolase activity and methods of use of such gene” (Antibiotics, S.A.U., priority 1999, dated 2004).

Like-named read-outs stand apart in the source and are kept apart here.

Assay [1] has as its target T1, CPC-AH B (Hapsidospora chrysogena, UniProt A0A086SV17). The assay is described as follows: In-vitro deacetylation by enzymatic extracts from E. coli JM109(DE3)/pT7B2.2 (processed CPC-AH B). The note with it: substrate 20 mM, 60 minutes at 37° C. It is filed as biochemical, Acremonium chrysogenum.
For another assay, the system named is extracellular CPC-AH. To be noted: cited from earlier work.
Assay [2] concerns the target T1, CPC-AH B. The assay is described as follows: Effect of metals and inhibitors on CPC-AH B activity (HPLC test of DAC formation from CPC). It is filed as biochemical, Acremonium chrysogenum.
The mark [3] stands for this setting: final concentration of the ions 1 mM.
The mark [4] stands for this setting: metals 1 mM, pre-incubated 15 minutes at 4° C., NONE = 100.

T1 sequence (A0A086SV17 107-383): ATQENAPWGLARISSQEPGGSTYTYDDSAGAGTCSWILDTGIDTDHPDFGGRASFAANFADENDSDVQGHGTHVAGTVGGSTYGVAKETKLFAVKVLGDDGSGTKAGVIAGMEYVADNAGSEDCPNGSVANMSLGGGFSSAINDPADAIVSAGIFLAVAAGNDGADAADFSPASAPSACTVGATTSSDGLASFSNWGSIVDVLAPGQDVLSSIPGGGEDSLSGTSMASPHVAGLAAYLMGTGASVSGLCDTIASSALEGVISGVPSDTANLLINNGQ

Regarding `CC(=O)OCC1=C(C(=O)O)N2C(=O)[C@@H](N)[C@H]2SC1` [7-ACA, 7-aminocephalosporanic acid], the “Deacetylation of substrate” value at CPC-AH B [1] is “detected appearance of the corresponding deacetylated derivatives”. On to `CC(=O)OCC1=C(C(=O)O)N2C(=O)[C@@H](NC(=O)CCC[C@@H](N)C(=O)O)[C@H]2SC1` [CPC, cephalosporin C], for which the Michaelis constant (Km) in the assay with extracellular CPC-AH was 20 mM. Also, the “Deacetylation of substrate” value at CPC-AH B [1] is on record as “detected appearance of the corresponding deacetylated derivatives”.

Turning to `O=C(O)CN(CCN(CC(=O)O)CC(=O)O)CC(=O)O` [EDTA], the “CPC-AH activity (%)” value came out at 91% at CPC-AH B [2] (inhibitor 0.1 mM, NONE = 100); 87% at CPC-AH B [2] (inhibitor 1 mM, NONE = 100); 86% at CPC-AH B [2] (inhibitor 10 mM, NONE = 100).

With `O=S(=O)([O-])[O-].[Fe+2]` [FeSO4], the “Effect of metal ion on CPC-AH B activity” value on CPC-AH B [2] (setting [3]) is “inhibit activity to a greater or lesser extent”. Further, the “CPC-AH activity (%)” value on CPC-AH B [2] (setting [4]) is listed as 49%. `O=C([O-])[O-].[K+].[K+]` [K2CO3]: the “CPC-AH activity (%)” value on CPC-AH B [2] (setting [4]) turned out to be 77%. With `O=S(=O)([O-])[O-].[Mg+2]` [MgSO4], at CPC-AH B [2] (setting [3]), the “Effect of metal ion on CPC-AH B activity” value was “stimulating effect”. In addition, at CPC-AH B [2] (setting [4]), the “CPC-AH activity (%)” value turned out to be 141%. The like results for `O=S(=O)([O-])[O-].[Mn+2]` [MnSO4] were, in that order, “stimulating effect” and 140%.

With `[Cl-].[Na+]` [NaCl], the “CPC-AH activity (%)” value at CPC-AH B [2] turned out to be 94%. On to `O=S(=O)(F)Cc1ccccc1` [PMSF, phenylmethylsulphonyl fluoride], for which the “Effect of inhibitor on CPC-AH B activity” value at CPC-AH B [2] is on record as “strong inhibitory effect”.

For `O=S(=O)([O-])[O-].[Zn+2]` [ZnSO4], the “Effect of metal ion on CPC-AH B activity” value at CPC-AH B [2] (setting [3]) is given as “inhibit activity to a greater or lesser extent”. Further, at CPC-AH B [2] (setting [4]), the “CPC-AH activity (%)” value turned out to be 60%. As to AgNO3, at CPC-AH B [2], the “CPC-AH activity (%)” value is on record as 60% and the “Effect of metal ion on CPC-AH B activity” value is on record as “inhibit activity to a greater or lesser extent”. The like results for CaCl2 were, in that order, 147% and “stimulating effect”. Consider CoSO4, for which, on CPC-AH B [2], the “CPC-AH activity (%)” value was determined as 80%.

CuSO4: on CPC-AH B [2], the “CPC-AH activity (%)” value amounted to 64% and the “Effect of metal ion on CPC-AH B activity” value is “inhibit activity to a greater or lesser extent”.

What is called Km is the concentration of substrate that gives half-maximal velocity.
